Source: paper PMC11988556, “Combined Cytotoxic Effects of the Fungicide Azoxystrobin and Common Food-Contaminating Mycotoxins” (Foods, 2025)

What was measured:
HepG2 cells [1] = assay: resazurin reduction cytotoxicity assay, with CI-isobologram analysis of mixtures; format: cell-based, human
HepG2 cells [2] = assay: MTT cytotoxicity assay, with CI-isobologram analysis of mixtures; format: cell-based, human; details: for reduction of cell viability at the higher concentration tested: MTT, highest concentration of the combination experiment
[3] = HepG2, 24 h, resazurin, highest concentration of the combination experiment
[4] = HepG2, 24 h exposure, resazurin assay, spread in brackets, read-out: IC50
[5] = resazurin method, HepG2, 24 h, median-effect equation, read-out: Dm (median-effect concentration)
[6] = IC50 from MTT individual cytotoxicity experiments, used to set combination ratios, 24 h, read-out: IC50 Concentration
[7] = MTT method, HepG2, 24 h, median-effect equation, read-out: Dm (median-effect concentration)
[8] = read-out: Dm (median-effect concentration)

Row | Compound | reduction of cell viability at the higher concentration tested (HepG2 cells [1]; [3]) [%] | IC50 (HepG2 cells [1]; [4]) [µM] | IC50 (HepG2 cells [1]; [5]) [µM] | reduction of cell viability at the higher concentration tested (HepG2 cells [2]; HepG2, 24 h) [%] | IC50 (HepG2 cells [2]; [6]) [µM] | IC50 (HepG2 cells [2]; [7]) [µM] | IC50 (HepG2 cells [1]; Homo sapiens, HepG2, 24 h exposure, resazurin assay, spread in brackets, read-out: IC50) [µM] | IC50 (HepG2 cells [1]; Homo sapiens, resazurin method, HepG2, 24 h, median-effect equation, read-out: Dm (median-effect concentration)) [µM] | IC50 (HepG2 cells [2]; Homo sapiens, HepG2, IC50 from MTT individual cytotoxicity experiments, used to set combination ratios, 24 h, read-out: IC50 Concentration) [µM] | IC50 (HepG2 cells [2]; Homo sapiens, MTT method, HepG2, 24 h, median-effect equation, read-out: Dm (median-effect concentration)) [µM] | reduction of cell viability at the higher concentration tested (HepG2 cells [1]) [%] | IC50 (HepG2 cells [1]; [8]) [µM] | IC50 (HepG2 cells [1]; read-out: IC50) [µM] | IC50 (HepG2 cells [2]; [8]) [µM] | IC50 (HepG2 cells [2]; read-out: IC50 Concentration) [µM]
1 | CO/C=C(/C(=O)OC)c1ccccc1Oc1cc(Oc2ccccc2C#N)ncn1 [AZX, azoxystrobin] | 27 | 231 | 638 | 43 | 206 | 284 |  |  |  |  |  |  |  |  | 
2 | CC1=C[C@H]2O[C@@H]3[C@H](O)C[C@](C)([C@@]2(CO)[C@H](O)C1=O)[C@]31CO1 [DON, deoxynivalenol] | 59 | 6.61 | 5.33 | 69 | 9.39 | 2.74 |  |  |  |  |  |  |  |  | 
3 | C[C@@H]1Cc2c(Cl)cc(C(=O)N[C@@H](Cc3ccccc3)C(=O)O)c(O)c2C(=O)O1 [OTA, ochratoxin A] | 44 |  |  | 59 |  |  | 147 | 87.6 | 195 | 57.1 |  |  |  |  | 
4 | CC(=O)OC[C@]12C[C@H](OC(=O)CC(C)C)C(C)=C[C@H]1O[C@@H]1[C@H](O)[C@@H](OC(C)=O)[C@@]2(C)[C@]12CO2 [T2, T-2 toxin] |  |  |  |  |  |  |  |  |  |  | 40 | 0.1 | 0.051 | 0.06 | 0.059
